Measurements reported in the NIST ThermoML archive (doi:10.1021/je800940j).

Assay: xn = mol fraction of the nth substance listed
Settings: 101 kPa, Liquid; for viscosity: Concentric cylinders viscometry

C1CCCCC1 [cyclohexane] + Cc1ccccc1
Settings | mass density, 283.15 K [kg/m3] | mass density, 293.15 K [kg/m3] | mass density, 303.15 K [kg/m3] | mass density, 313.15 K [kg/m3] | mass density, 323.15 K [kg/m3] | viscosity, 283.15 K [mPa·s] | viscosity, 293.15 K [mPa·s] | viscosity, 303.15 K [mPa·s] | viscosity, 313.15 K [mPa·s] | viscosity, 323.15 K [mPa·s]
x1 = 0.0958 | 866.15 | 856.9 | 847.5 | 838.15 | 828.65 | 0.6712 | 0.5995 | 0.5395 | 0.4879 | 0.4428
x1 = 0.196 | 855.85 | 846.6 | 837.2 | 827.8 | 818.35 | 0.6623 | 0.5908 | 0.5306 | 0.4776 | 0.431
x1 = 0.2986 | 846 | 836.7 | 827.3 | 817.9 | 808.45 | 0.6792 | 0.6051 | 0.543 | 0.487 | 0.4426
x1 = 0.3988 | 836.5 | 827.2 | 817.8 | 808.4 | 798.9 | 0.6948 | 0.6171 | 0.5524 | 0.4971 | 0.4491
x1 = 0.4974 | 827.65 | 818.35 | 808.9 | 799.45 | 789.95 | 0.7218 | 0.6378 | 0.5683 | 0.5095 | 0.4589
x1 = 0.5989 | 818.8 | 809.4 | 800 | 790.5 | 781 | 0.7635 | 0.67 | 0.5935 | 0.5294 | 0.4735
x1 = 0.6977 | 810.1 | 800.7 | 791.3 | 781.8 | 772.25 | 0.8203 | 0.7137 | 0.6274 | 0.5553 | 0.4886
x1 = 0.7998 | 802.5 | 793.1 | 783.65 | 774.15 | 764.5 | 0.9103 | 0.7838 | 0.6824 | 0.5987 | 0.5292
x1 = 0.8994 | 794.8 | 785.5 | 776.1 | 766.5 | 756.9 | 0.9994 | 0.8472 | 0.7271 | 0.6373 | 0.5583
x1 = 1 | 787.95 | 778.7 | 769.2 | 759.65 | 749.9 | 1.18 | 0.9847 | 0.8295 | 0.7061 | 0.5978
